Assay: xn = mol fraction of the nth substance listed
Settings: 101 kPa, Liquid; for viscosity: Capillary tube (Ostwald / Ubbelohde) method; for mass density: Vibrating tube method

CCCCCCn1cc[n+](C)c1.[Br-] [3-hexyl-1-methyl-1H-imidazolium bromide] + O
Settings	mass density, 293.15 K [kg/m3]	mass density, 303.15 K [kg/m3]	mass density, 313.15 K [kg/m3]	mass density, 323.15 K [kg/m3]	mass density, 333.15 K [kg/m3]	viscosity, 293.15 K [mPa·s]	viscosity, 303.15 K [mPa·s]	viscosity, 313.15 K [mPa·s]	viscosity, 323.15 K [mPa·s]	viscosity, 333.15 K [mPa·s]
x2 = 0	1227.4	1220.1	1213.3	1205.7	1198.6	6936	2239	851.65	512.14	350.69
x2 = 0.1225	1223.4	1216.1	1209.3	1201.8	1194.6	3519	1255	503.66	302.69	201.69
x2 = 0.2196	1220.4	1213.2	1206.4	1198.8	1191.5	1578	695.45	320.14	180.56	115.66
x2 = 0.2978	1217.9	1210.8	1204	1196.2	1189	776.62	395.49	194.1	117.64	77.41
x2 = 0.348	1216.3	1209	1202.2	1194.6	1187.4	507.8	265.62	143.5	89.65	57.52
x2 = 0.4166	1213.4	1206.2	1199.5	1192	1184.8	313.52	168.31	97.98	60.85	40.03
x2 = 0.504	1208.7	1201.6	1194.9	1187.5	1180.3	173.73	98.93	60.18	38.59	26.69
x2 = 0.5701	1203.9	1196.8	1190.1	1182.7	1175.8	111.42	65.77	41.24	27.69	19.36
x2 = 0.6405	1196.9	1189.9	1183.3	1176	1169	70.83	43.45	28.14	19.39	14.63
x2 = 0.7285	1184.3	1177.3	1170.7	1163.5	1156.5	36.4	22.54	15.13	10.75	7.929
x2 = 0.816	1163.7	1156.9	1150.1	1142.9	1136.3	18.13	12.1	8.492	–	4.762
x2 = 0.9048	1123.6	1117.3	1110.7	1104.4	1097.6	6.655	4.764	3.519	2.744	2.184
x2 = 0.9241	1109.4	1103.6	1097	1090.9	1084.2	4.951	3.619	2.764	2.165	1.733
x2 = 0.944	1091.2	1085.4	1079.5	1073.6	1067.2	3.48	2.622	–	1.6	1.301
x2 = 0.9613	1070.9	1065.7	1060.4	1054.7	1048.5	2.438	1.86	1.469	–	0.982
x2 = 0.9899	1022.6	1019.2	1015.1	1010.1	1004.2	1.342	1.047	0.846	0.695	0.588

— the NIST ThermoML archive (doi:10.1016/j.jct.2010.03.002)
